Test results taken from patent US20050004029A1, “Methods and compositions for treating vascular leak using hepatocyte growth factor” (priority 2001, published 2005).

Experiments:
[1] = tested on: Human pulmonary artery endothelial cells; assay: Transendothelial electrical resistance (TER) of human pulmonary artery endothelial cell monolayers; format: cell-based; settings: HGF 100 ng/ml; baseline TER ~1600 Ω
p38 MAPK = p38 MAPK activation by phospho-specific immunoblotting; format: cell-based, human; settings: HGF 20 ng/ml
Experimental: (§1) Endothelial cell monolayers grown to confluence in 12-well plates and challenged with HGF were lysed with 100 μl of 2×SDS sample buffer, and cell lysates were transferred into microcentrifuge tubes and boiled for 5 min. After a brief spin, proteins from 10 μl cell lysates were separated on 12% SDS-PAGE and transferred to nitrocellulose (Schleicher & Schuell, Keene, N.H.) (30V, 18 h). After blocking with PBST (PBS with 0.1% Tween 20) containing 5% non-fat milk for 1 hr, nitrocellulose blots were reacted with primary antibodies diluted in PBST containing 5% BSA for 1 hr, washed with PBST (3×10 min), incubated with peroxidase-conjugated secondary antibodies (goat anti-rabbit IgG, 1:10,000 dilution, Sigma; or goat anti-mouse IgG, 1:10,000 dilution, Bio-Rad Labs, Richmond, Calif.) diluted in PBST with 5% non-fat milk for 1 hr and again washed with PBST (3×10 min). Finally, immunoreactive proteins were detected using ECL. The relative intensities of the protein bands were quantified by scanning densitometry.
The MAP family of kinases (ERK1/2 and p38) are actively involved in agonist-induced endothelial cell actin reorganization and barrier regulation (Verin, A. D. et al. (2000) Am. J. Physiol: Lung Cell Molec. Phys. 279:L360-L370, 2000; Garcia, J. G. N. et al. (2001) J. Clin. Invest. 108:689-711) and have been noted to participate in HGF-mediated cell activation (Liang, C. C. and Chen, H. C. (2001) J. Biol. Chem. 276:21146-21152). These reports were confirmed in human endothelial cell monolayers incubated with HGF (20 ng/ml, for 1, 2, 5, 10, 15, 20, 30, 60, or 120 min) where activation of p42/44 ERK and p38 MAPK by HGF was detected by immunoblotting with antibodies that only recognize the phosphorylated (activated) forms of ERK or p38 MAPK. The activation of ERKs was evident at 5 min, maximal after 10-15 min with a gradual decline thereafter, but remaining sustained above basal levels for more than 2 hrs. […] The onset of HGF-mediated activation of p38 MAPK was similar to ERK, with plateau at 10-15 min. […]

human endothelial cells = assay: β-catenin immunofluorescent microscopy; format: cell-based; settings: HGF-stimulated cells
Experimental: (§2) Endothelial cell monolayers grown on gelatinized cover slips were rinsed with M199 and incubated with agonists in the same medium in a 37° C. incubator (5% CO2). Monolayers were then rinsed with PBS (3×2 min), fixed in 4% paraformaldehyde for 10 min, again rinsed with PBS (3×2 min), and permeabilized with 0.25% Triton X-100 for 5 min. Cells were then washed briefly with PBS (3×2 min), blocked with PBS containing 2% BSA for 30 min and incubated with 1 Unit/mL of Texas Red-X phalloidin (Molecular Probes, Eugene, Oreg.), β-catenin antibody (Transduction Laboratories, Lexington, Ky.), glycogen synthase kinase-3 β (GSK-3β) (Santa Cruz Biotechnology, Inc., Santa Cruz, Calif.), or mono-phosphorylated MLC antisera (see Garcia, J. G. N. et al. (2001) J. Clin. Invest. 108:689-711) for 1 hr. After washing with PBS (3×2 min), cover slips were mounted on slides using SlowFade mounting medium (Molecular Probes). Cells were analyzed using a 60× oil objective on a Nikon Eclipse TE 300 microscope. Images were captured by Sony Digital Photo camera DKC 5000. The same exposure time was applied to all samples within one experiment. […]

p42/44 ERK = p42/44 ERK activation by phospho-specific immunoblotting; format: cell-based, human; settings: HGF 20 ng/ml
Experimental: as §1
The MAP family of kinases (ERK1/2 and p38) are actively involved in agonist-induced endothelial cell actin reorganization and barrier regulation (Verin, A. D. et al. (2000) Am. J. Physiol: Lung Cell Molec. Phys. 279:L360-L370, 2000; Garcia, J. G. N. et al. (2001) J. Clin. Invest. 108:689-711) and have been noted to participate in HGF-mediated cell activation (Liang, C. C. and Chen, H. C. (2001) J. Biol. Chem. 276:21146-21152). These reports were confirmed in human endothelial cell monolayers incubated with HGF (20 ng/ml, for 1, 2, 5, 10, 15, 20, 30, 60, or 120 min) where activation of p42/44 ERK and p38 MAPK by HGF was detected by immunoblotting with antibodies that only recognize the phosphorylated (activated) forms of ERK or p38 MAPK. The activation of ERKs was evident at 5 min, maximal after 10-15 min with a gradual decline thereafter, but remaining sustained above basal levels for more than 2 hrs. […] The onset of HGF-mediated activation of p38 MAPK was similar to ERK, with plateau at 10-15 min. However, the duration of this response was much more truncated than ERK activation, beginning to decline by 20 min and returning to basal value by 1 hr.

[2] = tested on: human endothelial monolayers; assay: F-actin immunofluorescent microscopy (cortical actin ring); format: cell-based; settings: HGF 20 ng/ml
Experimental: as §2, with “5000.” for “5000. The same exposure time was applied to all samples within one experiment.”
The effect of HGF on the spatial localization of polymerized actin in human endothelial monolayers was investigated by immunofluorescent microscopy. […] F-actin staining was assessed with Texas red phalloidin and myosin light chain staining evaluated with anti-monophosphorylated myosin light chain polyclonal antibody.

## HGF: heparin-binding glycoprotein, multifunctional cytokine, ligand of c-Met; purchased from R&D Systems
[1]
  peak TER: ~2400 Ω
p38 MAPK
  time at which p38 MAPK activation begins to decline: ≤ 20 min
  time of plateau of p38 MAPK activation: 10 to 15 min
  time of return of p38 MAPK activation to basal value: ≤ 1 h
Human endothelial cells
  β-catenin immunoreactivity: increased β-catenin immunoreactivity along cell borders
p42/44 ERK
  duration of ERK activation above basal levels: more than 2 hrs
  time at which ERK activation is evident: 5 min
  time of maximal ERK activation: 10 to 15 min
[2]
  F-actin staining: rapid enhancement of F-actin staining spatially confined to the cortical cytoskeletal ring
